The values that follow come from patent US9061029B2, “Method of treating proliferative disorders and other pathological conditions mediated by Bcr-Abl, c-Kit, DDR1, DDR2 or PDGF-R kinase activity” (Novartis AG, priority 2009, dated 2015).

For data set [1] the following is noted: administration of nilotinib in a fruit preparation, human subjects.
Procedure: All treatments were administered with 240 mL of water, in the morning, after an overnight fast of at least 10 hours. Subjects continued to fast until 4 hours after administration. […] Consumption of grapefruit, grapefruit juice, or any caffeinated beverages within 48 hours of study initiation was prohibited.
At each time point, 2.5 mL of whole blood was drawn using a Serum Separator Vacutainer® (Becton, Dickinson and Company, Franklin Lakes, N.J., USA) tube. The tube was allowed to stand vertically at room temperature for 30 minutes prior to centrifugation at 5° C. for 10 minutes at 1100 g. Immediately after centrifugation, the upper serum sample was transferred and stored frozen at ≦−15° C. until shipped to the analytical site for sample analyses.
The MTBE layer was transferred, evaporated to dryness, and reconstituted with 400 μl of an acetonitrile and 0.2% formic acid mixture (40:60, v/v). Chromatography was carried out using a Phenomenex Synergi™ Polar-RP column (particle size 4 μm, 50 mm×2 mm i.d.) (Phenomenex, Inc, Torrance, Calif.) held at room temperature. Elution of the analytes was performed using a isocratic elution at a flow rate of 0.5 mL/min with mobile phases of 0.2% formic acid in 10 mM aqueous ammonium formate: 0.2% formic acid in acetonitrile (60:40, v/v).
The conditions of data set [2]: 400 mg oral capsule, cited from earlier work.
For data set [3] the following is noted: concurrent intake of grapefruit juice; cited from earlier work.
[4] abbreviates: light breakfast given 30 minutes prior to dosing.

Where two headings read alike, the source gives them in different places.

Take `Cc1cn(-c2cc(NC(=O)c3ccc(C)c(Nc4nccc(-c5cccnc5)n4)c3)cc(C(F)(F)F)c2)cn1` [nilotinib, 4-methyl-3-[[4-(3-pyridinyl)-2-pyrimidinyl]amino]-N-[5-(4-methyl-1H-imidazol-1-yl)-3-(trifluoromethyl)-phenyl]benzamide]: the safety and tolerability result in data set [1] is “safe and well tolerated”. Moreover, in data set [2] (after a high fat breakfast), the “increase in Cmax” value is reported as 112% and the “increase in total exposure (AUC0-t)” value is 82%. In data set [2] (setting [4]), the “increase in Cmax” value is given as 55% and the “increase in total exposure (AUC0-t)” value is recorded as 29%. Moreover, in data set [3], the AUC increase is 29% and the Cmax increase is on record as 60%.
